Measurements: ChEMBL document CHEMBL4014294, “Synthesis and in vitro investigation of potential antiproliferative monosaccharide-d-secoestrone bioconjugates” (Bioorg Med Chem Lett, 2017)
One block for each molecule: values may come before it.

Columns and labels:
[1] = tested on: MCF7; experiment: Growth inhibition of human MCF7 cells at 30 uM after 72 hrs by MTT assay relative to control; type: functional; settings: MCF7, 72 h, read-out: GI
[2] = tested on: A2780; experiment: Growth inhibition of human A2780 cells at 10 uM after 72 hrs by MTT assay relative to control; type: functional; settings: A2780, 72 h, read-out: GI
[3] = tested on: MCF7; experiment: Growth inhibition of human MCF7 cells at 10 uM after 72 hrs by MTT assay relative to control; type: functional; settings: MCF7, 72 h, read-out: GI
[4] = Growth inhibition of mouse NIH/3T3 cells at 10 uM after 72 hrs by MTT assay relative to control; type: cell-based, NIH3T3; settings: read-out: GI
[5] = tested on: HeLa; experiment: Growth inhibition of human HeLa cells at 30 uM after 72 hrs by MTT assay relative to control; type: functional; settings: read-out: GI
[6] = tested on: A2780; experiment: Antiproliferative activity against human A2780 cells after 72 hrs by MTT assay; type: functional, cell-based; settings: A2780, 72 h
[7] = tested on: A2780; experiment: Growth inhibition of human A2780 cells at 30 uM after 72 hrs by MTT assay relative to control; type: functional; settings: A2780, 72 h, read-out: GI
[8] = tested on: HeLa; experiment: Antiproliferative activity against human HeLa cells after 72 hrs by MTT assay; type: functional, cell-based
[9] = tested on: HeLa; experiment: Growth inhibition of human HeLa cells at 10 uM after 72 hrs by MTT assay relative to control; type: functional; settings: read-out: GI
[10] = Growth inhibition of mouse NIH/3T3 cells at 30 uM after 72 hrs by MTT assay relative to control; type: cell-based, NIH3T3; settings: read-out: GI
[11] = tested on: MCF7; experiment: Antiproliferative activity against human MCF7 cells after 72 hrs by MTT assay; type: functional, cell-based; settings: MCF7, 72 h

IC50 [6]: 8.8 µM
IC50 [8]: 20.5 µM
IC50 [11]: 8 µM
SMILES: CCC[C@H]1[C@@H]2CCc3cc(OCc4cn([C@@H]5O[C@H](COC(C)=O)[C@H](OC(C)=O)[C@H](OC(C)=O)[C@H]5OC(C)=O)nn4)ccc3[C@H]2CC[C@]1(C)/C=N/O
inhibition of growth at 30 µM [1]: 71.5%
inhibition of growth at 10 µM [2]: 59.3%
inhibition of growth at 10 µM [3]: 59.1%
inhibition at 72 h, 10 µM [4]: < 20%
inhibition of growth at 30 µM [5]: 61.9%
inhibition of growth at 30 µM [7]: 85.2%
inhibition of growth at 10 µM [9]: 31.5%
inhibition at 72 h, 30 µM [10]: 25.5%

IC50 [6]: 5.3 µM
IC50 [8]: > 30 µM
IC50 [11]: 10.7 µM
SMILES: CCC[C@H]1[C@@H]2CCc3cc(OCc4cn([C@@H]5O[C@H](COC(C)=O)[C@@H](OC(C)=O)[C@H](OC(C)=O)[C@H]5OC(C)=O)nn4)ccc3[C@H]2CC[C@]1(C)/C=N/O
inhibition of growth at 30 µM [1]: 67.7%
inhibition of growth at 10 µM [2]: 69.5%
inhibition of growth at 10 µM [3]: 46.7%
inhibition at 72 h, 10 µM [4]: < 20%
inhibition of growth at 30 µM [5]: 40%
inhibition of growth at 30 µM [7]: 76.7%
inhibition of growth at 10 µM [9]: 20.4%
inhibition at 72 h, 30 µM [10]: 28.4%

SMILES: CCC[C@H]1[C@@H]2CCc3cc(OCc4cn(C[C@H]5O[C@H](OC)[C@@H](OC(=O)c6ccccc6)[C@@H](OC(=O)c6ccccc6)[C@@H]5OC(=O)c5ccccc5)nn4)ccc3[C@H]2CC[C@]1(C)/C=N/O
inhibition of growth at 30 µM [1]: < 20%
inhibition of growth at 10 µM [2]: < 20%
inhibition of growth at 10 µM [3]: < 20%
inhibition of growth at 30 µM [5]: < 20%
inhibition of growth at 30 µM [7]: < 20%
inhibition of growth at 10 µM [9]: < 20%

SMILES: CCC[C@H]1[C@@H]2CCc3cc(OCc4cn([C@@H]5O[C@H](CO)[C@@H](O)[C@H](O)[C@H]5O)nn4)ccc3[C@H]2CC[C@]1(C)CO
inhibition of growth at 30 µM [1]: < 20%
inhibition of growth at 10 µM [2]: < 20%
inhibition of growth at 10 µM [3]: < 20%
inhibition of growth at 30 µM [5]: < 20%
inhibition of growth at 30 µM [7]: < 20%
inhibition of growth at 10 µM [9]: < 20%

SMILES: CCC[C@H]1[C@@H]2CCc3cc(OCc4cn([C@@H]5O[C@H](COC(C)=O)[C@@H](OC(C)=O)[C@H](OC(C)=O)[C@H]5OC(C)=O)nn4)ccc3[C@H]2CC[C@]1(C)CO
inhibition of growth at 30 µM [1]: 45.5%
inhibition of growth at 10 µM [2]: 21%
inhibition of growth at 10 µM [3]: 27.4%
inhibition of growth at 30 µM [5]: 23.9%
inhibition of growth at 30 µM [7]: 19.5%
inhibition of growth at 10 µM [9]: 34.5%

SMILES: CCC[C@H]1[C@@H]2CCc3cc(OCc4cn([C@@H]5O[C@H](COC(C)=O)[C@H](OC(C)=O)[C@H](OC(C)=O)[C@H]5OC(C)=O)nn4)ccc3[C@H]2CC[C@]1(C)CO
inhibition of growth at 30 µM [1]: 61.9%
inhibition of growth at 10 µM [2]: < 20%
inhibition of growth at 10 µM [3]: < 20%
inhibition of growth at 30 µM [5]: 31.8%
inhibition of growth at 30 µM [7]: 32.7%
inhibition of growth at 10 µM [9]: 23.9%

IC50 [6]: 27.4 µM
IC50 [8]: > 30 µM
IC50 [11]: > 30 µM
SMILES: CCC[C@H]1[C@@H]2CCc3cc(OCc4cn([C@@H]5O[C@H](CO)[C@@H](O)[C@H](O)[C@H]5O)nn4)ccc3[C@H]2CC[C@]1(C)/C=N/O
inhibition of growth at 30 µM [1]: < 20%
inhibition of growth at 10 µM [2]: < 20%
inhibition of growth at 10 µM [3]: < 20%
inhibition of growth at 30 µM [5]: 31.5%
inhibition of growth at 30 µM [7]: 57.9%
inhibition of growth at 10 µM [9]: < 20%

IC50 [6]: 6.6 µM
IC50 [8]: 8.9 µM
IC50 [11]: 9.4 µM
SMILES: CCC[C@H]1[C@@H]2CCc3cc(OCc4cn([C@H]5O[C@H](COC(C)=O)[C@@H](OC(C)=O)[C@H](OC(C)=O)[C@@H]5OC(C)=O)nn4)ccc3[C@H]2CC[C@]1(C)/C=N/O
inhibition of growth at 30 µM [1]: 65.9%
inhibition of growth at 10 µM [2]: 69.5%
inhibition of growth at 10 µM [3]: 53.9%
inhibition at 72 h, 10 µM [4]: 27.3%
inhibition of growth at 30 µM [5]: 89.6%
inhibition of growth at 30 µM [7]: 86.4%
inhibition of growth at 10 µM [9]: 52.4%
inhibition at 72 h, 30 µM [10]: 34.8%

SMILES: CCC[C@H]1[C@@H]2CCc3cc(OCc4cn(C[C@H]5O[C@H](OC)[C@@H](OC(=O)c6ccccc6)[C@@H](OC(=O)c6ccccc6)[C@@H]5OC(=O)c5ccccc5)nn4)ccc3[C@H]2CC[C@]1(C)CO
inhibition of growth at 30 µM [1]: < 20%
inhibition of growth at 10 µM [2]: < 20%
inhibition of growth at 10 µM [3]: < 20%
inhibition of growth at 30 µM [5]: < 20%
inhibition of growth at 30 µM [7]: < 20%
inhibition of growth at 10 µM [9]: < 20%

SMILES: CCC[C@H]1[C@@H]2CCc3cc(OCc4cn(C[C@H]5O[C@@H](OC)[C@H](OC(=O)c6ccccc6)[C@@H]5OC(=O)c5ccccc5)nn4)ccc3[C@H]2CC[C@]1(C)/C=N/O
inhibition of growth at 30 µM [1]: < 20%
inhibition of growth at 10 µM [2]: < 20%
inhibition of growth at 10 µM [3]: < 20%
inhibition of growth at 30 µM [5]: < 20%
inhibition of growth at 30 µM [7]: < 20%
inhibition of growth at 10 µM [9]: 24.3%

SMILES: CCC[C@H]1[C@@H]2CCc3cc(OCc4cn(C[C@H]5O[C@@H](OC)[C@H](OC(=O)c6ccccc6)[C@@H]5OC(=O)c5ccccc5)nn4)ccc3[C@H]2CC[C@]1(C)CO
inhibition of growth at 30 µM [1]: < 20%
inhibition of growth at 10 µM [2]: < 20%
inhibition of growth at 10 µM [3]: < 20%
inhibition of growth at 30 µM [5]: < 20%
inhibition of growth at 30 µM [7]: < 20%
inhibition of growth at 10 µM [9]: < 20%

SMILES: CCC[C@H]1[C@@H]2CCc3cc(OCc4cn(C[C@H]5O[C@H](OC)[C@H](OC(=O)c6ccccc6)[C@@H](OC(=O)c6ccccc6)[C@@H]5OC(=O)c5ccccc5)nn4)ccc3[C@H]2CC[C@]1(C)CO
inhibition of growth at 30 µM [1]: < 20%
inhibition of growth at 10 µM [2]: < 20%
inhibition of growth at 10 µM [3]: < 20%
inhibition of growth at 30 µM [5]: < 20%
inhibition of growth at 30 µM [7]: < 20%
inhibition of growth at 10 µM [9]: < 20%

SMILES: CCC[C@H]1[C@@H]2CCc3cc(OCc4cn(C[C@H]5O[C@H](OC)[C@H](OC(=O)c6ccccc6)[C@@H](OC(=O)c6ccccc6)[C@@H]5OC(=O)c5ccccc5)nn4)ccc3[C@H]2CC[C@]1(C)/C=N/O
inhibition of growth at 30 µM [1]: < 20%
inhibition of growth at 10 µM [2]: 28.4%
inhibition of growth at 10 µM [3]: < 20%
inhibition of growth at 30 µM [5]: < 20%
inhibition of growth at 30 µM [7]: 45.7%
inhibition of growth at 10 µM [9]: < 20%

SMILES: CCC[C@H]1[C@@H]2CCc3cc(OCc4cn([C@H]5O[C@H](COC(C)=O)[C@@H](OC(C)=O)[C@H](OC(C)=O)[C@@H]5OC(C)=O)nn4)ccc3[C@H]2CC[C@]1(C)CO
inhibition of growth at 30 µM [1]: 54.3%
inhibition of growth at 10 µM [2]: 34.9%
inhibition of growth at 10 µM [3]: 26.3%
inhibition of growth at 30 µM [5]: 41.5%
inhibition of growth at 30 µM [7]: 36.5%
inhibition of growth at 10 µM [9]: 51.9%
